This note sets out measurements from ChEMBL document CHEMBL4373724, “An overview of recent progress in siderophore-antibiotic conjugates” (2019).

The structures appear in SMILES notation. Values after ≈ are worked out from the molar mass of the structure shown.

Holding throughout (type): functional
Assay [1] deals with Escherichia coli. In words: Antimicrobial activity against Escherichia coli X580 under iron-sufficient condition by broth microdilution method.
Assay [2] has as its system Escherichia coli. In words: Antimicrobial activity against Escherichia coli X580 under iron-deficient condition by broth microdilution method.
The subject of assay [3] is Escherichia coli. Kind of assay: Antimicrobial activity against Escherichia coli EC14 under iron-sufficient condition by broth microdilution method.
The subject of assay [4] is Escherichia coli. In words: Antimicrobial activity against Escherichia coli EC14 under iron-deficient condition by broth microdilution method.
Assay [5] relates to Pseudomonas aeruginosa. Kind of assay: Antimicrobial activity against Pseudomonas aeruginosa X620 under iron-sufficient condition by broth microdilution method.
In assay [6] the test system is Pseudomonas aeruginosa. Kind of assay: Antimicrobial activity against Pseudomonas aeruginosa X620 under iron-deficient condition by broth microdilution method.
The subject of assay [7] is Pseudomonas aeruginosa. In words: Antimicrobial activity against Pseudomonas aeruginosa X621 under iron-sufficient condition by broth microdilution method.
Assay [8] has as its system Pseudomonas aeruginosa. In words: Antimicrobial activity against Pseudomonas aeruginosa X621 under iron-deficient condition by broth microdilution method.
The subject of assay [9] is Staphylococcus aureus. In words: Antimicrobial activity against Staphylococcus aureus X1.1 under iron-sufficient condition by broth microdilution method.
Assay [10] relates to Staphylococcus aureus. In words: Antimicrobial activity against Staphylococcus aureus X1.1 under iron-deficient condition by broth microdilution method.
The test system of assay [11] is Micrococcus luteus. Kind of assay: Antimicrobial activity against Micrococcus luteus under iron-sufficient condition by broth microdilution method.
The test system of assay [12] is Micrococcus luteus. Kind of assay: Antimicrobial activity against Micrococcus luteus under iron-deficient condition by broth microdilution method.
Assay [13] deals with Staphylococcus aureus. In words: Antimicrobial activity against Staphylococcus aureus X1.1.
Assay [14] has as its system Staphylococcus aureus. In words: Antimicrobial activity against Staphylococcus aureus V41.
For assay [15], the system named is Streptococcus. Kind of assay: Antimicrobial activity against Streptococcus AC283.
For assay [16], the system named is Streptococcus pneumoniae. Kind of assay: Antimicrobial activity against Streptococcus pneumoniae PARK.
Assay [17] has as its system Mycobacterium tuberculosis. Kind of assay: Antitubercular activity against Mycobacterium tuberculosis H37Rv.
Assay [18] deals with Mycolicibacterium smegmatis. In words: Antitubercular activity against Mycobacterium smegmatis.

Take `CN[C@H](CC(C)C)C(=O)N[C@H]1C(=O)N[C@@H](CC(N)=O)C(=O)N[C@H]2C(=O)N[C@H]3C(=O)N[C@H](C(=O)N[C@H](C(=O)O)c4cc(O)cc(O)c4-c4cc3ccc4O)[C@H](O)c3ccc(c(Cl)c3)Oc3cc2cc(c3O[C@@H]2O[C@H](CO)[C@@H](O)[C@H](O)[C@H]2O[C@H]2C[C@](C)(NC(=O)CCC(=O)N(O)CCCCCNC(=O)CCC(=O)N(CCCCNC(=O)c3cccc(O)c3O)CCCNC(=O)c3cccc(O)c3O)[C@H](O)[C@H](C)O2)Oc2ccc(cc2Cl)[C@H]1O`: the MIC in assay [1] is 32 µM (≈ 68.8 µg/mL); in [2], 128 µM (≈ 275 µg/mL); in assay [3], over 128 µM; in assay [4] it was over 128 µM; in assay [5], over 128 µM; in assay [6] it was over 128 µM. The MIC is over 128 µM in assay [7]; over 128 µM in assay [8]; 8 µM (≈ 17.2 µg/mL) in assay [9]; 8 µM (≈ 17.2 µg/mL) in assay [10]; 16 µM (≈ 34.4 µg/mL) in [11]; 16 µM (≈ 34.4 µg/mL) in assay [12].

Consider `O=C(CCC(=O)N(CCCCNC(=O)c1cccc(O)c1O)CCCNC(=O)c1cccc(O)c1O)N[C@@H]1C(=O)N2C(C(=O)O)=C(Cl)CC[C@H]12`, for which the MIC in assay [13] came out at 64 µg/mL (≈ 89.4 µM); in [14] it was 64 µg/mL (≈ 89.4 µM); in assay [15], 16 µg/mL (≈ 22.3 µM); in assay [16], 64 µg/mL (≈ 89.4 µM).

For `CCCCCCCCCCCCCCCCC(=O)N(O)CCCC[C@H](NC(=O)[C@@H]1COC(c2ccccc2O)=N1)C(=O)NC[C@H](NC(=O)CCCO[C@H]1O[C@@H]2O[C@@]3(C)CC[C@H]4[C@H](C)CC[C@@H]([C@H]1C)[C@@]24OO3)C(=O)N[C@H]1CCCCN(O)C1=O`, the MIC in [17] was 0.39 µg/mL (≈ 0.334 µM); in assay [18], over 5 µg/mL.

`CN[C@H](CC(C)C)C(=O)N[C@H]1C(=O)N[C@@H](CC(N)=O)C(=O)N[C@H]2C(=O)N[C@H]3C(=O)N[C@H](C(=O)N[C@H](C(=O)O)c4cc(O)cc(O)c4-c4cc3ccc4O)[C@H](O)c3ccc(c(Cl)c3)Oc3cc2cc(c3O[C@@H]2O[C@H](CO)[C@@H](O)[C@H](O)[C@H]2O[C@H]2C[C@](C)(N)[C@H](O)[C@H](C)O2)Oc2ccc(cc2Cl)[C@H]1O` [VANCOMYCIN]: the MIC in assay [1] was 32 to 64 µM (≈ 46.4 to 92.8 µg/mL); in assay [2] it was 32 µM (≈ 46.4 µg/mL); in assay [3], over 128 µM; in [4] it was over 128 µM; in [5] it was over 128 µM; in assay [6], over 128 µM. For the same compound, the MIC in [7] was over 128 µM; in [8] it was over 128 µM; in assay [9], 1 to 4 µM (≈ 1.45 to 5.8 µg/mL); in assay [10], 0.5 to 4 µM (≈ 0.725 to 5.8 µg/mL); in assay [11], 2 to 4 µM (≈ 2.9 to 5.8 µg/mL); in assay [12], 1 to 4 µM (≈ 1.45 to 5.8 µg/mL).
